In assay [1] the target is CDK9/Cyclin K (Homo sapiens) (UniProt P50750+O75909). The assay can be described thus: Inhibition of human CDK9/cyclin K at 1.82 nM by HotSpot assay relative to control. The format is protein-complex assay.
For assay [2], the target named is Serine/threonine-protein kinase MARK1 (Homo sapiens) (UniProt Q9P0L2). As to the kind of experiment: Inhibition of human MARK1 at 1.82 nM by HotSpot assay relative to control.
The target of assay [3] is T1, Serine/threonine-protein kinase NLK (Homo sapiens) (UniProt Q9UBE8).
T1 sequence (whole entry): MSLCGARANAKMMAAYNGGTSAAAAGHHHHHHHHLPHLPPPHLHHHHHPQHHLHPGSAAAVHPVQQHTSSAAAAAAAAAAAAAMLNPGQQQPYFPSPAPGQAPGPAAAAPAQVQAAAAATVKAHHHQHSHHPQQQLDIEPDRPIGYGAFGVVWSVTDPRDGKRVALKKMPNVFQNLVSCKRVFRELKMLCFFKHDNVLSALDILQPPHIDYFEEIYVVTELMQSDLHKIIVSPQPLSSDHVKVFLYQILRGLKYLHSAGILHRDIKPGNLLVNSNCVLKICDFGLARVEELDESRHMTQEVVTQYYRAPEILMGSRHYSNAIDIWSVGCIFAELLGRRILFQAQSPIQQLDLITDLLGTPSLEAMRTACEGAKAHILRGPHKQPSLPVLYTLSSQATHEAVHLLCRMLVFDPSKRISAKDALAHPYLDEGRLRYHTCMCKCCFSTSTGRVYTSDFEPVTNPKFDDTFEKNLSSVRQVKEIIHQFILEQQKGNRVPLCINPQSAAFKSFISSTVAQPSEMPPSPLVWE
As to the kind of experiment: Inhibition of human NLK at 1.82 nM by HotSpot assay relative to control.

Assay [4] deals with SRSF protein kinase 1 (Homo sapiens) (UniProt Q96SB4). As to the kind of experiment: Inhibition of human SRPK1 at 1.82 nM by HotSpot assay relative to control.
SRSF protein kinase 1 (Homo sapiens), sequence (Q96SB4 whole entry): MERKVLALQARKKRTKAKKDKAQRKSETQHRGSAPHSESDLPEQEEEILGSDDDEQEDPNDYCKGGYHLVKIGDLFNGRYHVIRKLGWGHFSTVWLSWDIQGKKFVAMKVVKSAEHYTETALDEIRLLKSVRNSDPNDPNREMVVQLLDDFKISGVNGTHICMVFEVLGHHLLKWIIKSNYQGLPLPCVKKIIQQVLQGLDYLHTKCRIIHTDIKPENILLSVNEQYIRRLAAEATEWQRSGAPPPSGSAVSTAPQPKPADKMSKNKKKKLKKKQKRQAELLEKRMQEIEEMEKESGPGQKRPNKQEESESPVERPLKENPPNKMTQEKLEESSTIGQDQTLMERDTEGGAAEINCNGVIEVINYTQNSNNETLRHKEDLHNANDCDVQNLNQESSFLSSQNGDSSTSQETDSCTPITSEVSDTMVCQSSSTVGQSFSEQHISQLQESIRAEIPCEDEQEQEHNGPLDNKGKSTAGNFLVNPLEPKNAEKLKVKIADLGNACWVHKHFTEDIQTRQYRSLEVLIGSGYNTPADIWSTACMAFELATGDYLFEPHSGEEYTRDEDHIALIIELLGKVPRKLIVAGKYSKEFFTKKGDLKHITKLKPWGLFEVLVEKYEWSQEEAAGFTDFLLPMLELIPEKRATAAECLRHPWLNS
Assay [5] has as its target T2, Serine/threonine-protein kinase TAO1 (Homo sapiens) (UniProt Q7L7X3).
T2 sequence (whole entry): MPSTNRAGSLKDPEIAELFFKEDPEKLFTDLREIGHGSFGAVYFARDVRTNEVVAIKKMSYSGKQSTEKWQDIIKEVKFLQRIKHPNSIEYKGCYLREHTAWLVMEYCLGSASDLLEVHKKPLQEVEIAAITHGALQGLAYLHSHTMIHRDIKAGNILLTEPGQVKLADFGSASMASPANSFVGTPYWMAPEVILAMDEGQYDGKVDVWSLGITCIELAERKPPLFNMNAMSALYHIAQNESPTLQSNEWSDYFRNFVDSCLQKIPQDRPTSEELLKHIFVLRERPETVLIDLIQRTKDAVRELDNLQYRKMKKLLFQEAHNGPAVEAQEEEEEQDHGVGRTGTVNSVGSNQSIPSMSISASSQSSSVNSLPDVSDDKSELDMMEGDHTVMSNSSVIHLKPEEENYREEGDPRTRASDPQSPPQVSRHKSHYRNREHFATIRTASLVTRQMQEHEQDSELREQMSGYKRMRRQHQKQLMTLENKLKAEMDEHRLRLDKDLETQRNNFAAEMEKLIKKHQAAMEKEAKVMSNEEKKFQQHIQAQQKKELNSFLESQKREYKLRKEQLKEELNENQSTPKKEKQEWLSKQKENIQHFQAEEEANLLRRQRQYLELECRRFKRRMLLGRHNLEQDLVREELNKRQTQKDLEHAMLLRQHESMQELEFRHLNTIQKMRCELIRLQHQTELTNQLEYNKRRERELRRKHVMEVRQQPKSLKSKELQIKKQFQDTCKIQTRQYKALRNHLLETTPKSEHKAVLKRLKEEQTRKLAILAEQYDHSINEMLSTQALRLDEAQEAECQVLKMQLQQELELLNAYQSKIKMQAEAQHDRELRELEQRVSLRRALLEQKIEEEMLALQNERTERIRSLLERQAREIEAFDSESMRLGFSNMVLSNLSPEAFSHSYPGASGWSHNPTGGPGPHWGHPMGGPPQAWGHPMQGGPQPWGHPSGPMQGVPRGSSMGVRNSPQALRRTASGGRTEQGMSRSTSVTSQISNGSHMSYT
The assay can be described thus: Inhibition of human TAOK1 at 1.82 nM by HotSpot assay relative to control.

Assay [6] addresses Calcium/calmodulin-dependent protein kinase type II subunit beta (Homo sapiens) (UniProt Q13554). The assay can be described thus: Inhibition of human CAMK2b at 18.6 nM by HotSpot assay relative to control.
In assay [7] the target is cAMP-dependent protein kinase (PKA) (Homo sapiens) (UniProt P22694+P17612+P22612). As to the kind of experiment: Inhibition of human PKA at 18.6 nM by HotSpot assay relative to control. The format is protein assay.
Assay [8] concerns the target T3, Protein kinase C zeta type (Homo sapiens) (UniProt Q05513).
T3 sequence (whole entry): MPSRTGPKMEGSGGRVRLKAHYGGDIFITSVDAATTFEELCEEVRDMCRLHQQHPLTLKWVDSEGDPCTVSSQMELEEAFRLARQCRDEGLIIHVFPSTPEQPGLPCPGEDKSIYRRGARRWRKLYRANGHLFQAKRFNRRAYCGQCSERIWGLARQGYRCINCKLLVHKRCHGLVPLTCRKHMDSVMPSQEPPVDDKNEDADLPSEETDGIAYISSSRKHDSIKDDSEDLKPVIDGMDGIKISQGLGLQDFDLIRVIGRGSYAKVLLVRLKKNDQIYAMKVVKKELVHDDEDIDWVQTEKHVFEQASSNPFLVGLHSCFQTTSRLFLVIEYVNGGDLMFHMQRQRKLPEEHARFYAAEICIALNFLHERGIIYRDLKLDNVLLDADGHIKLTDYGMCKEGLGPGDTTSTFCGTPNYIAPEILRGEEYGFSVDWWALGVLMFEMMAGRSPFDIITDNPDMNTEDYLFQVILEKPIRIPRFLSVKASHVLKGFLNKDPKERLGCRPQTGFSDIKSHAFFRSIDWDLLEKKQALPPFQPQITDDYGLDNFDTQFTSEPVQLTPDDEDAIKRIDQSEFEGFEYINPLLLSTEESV
The assay can be described thus: Inhibition of human PKCzeta at 18.6 nM by HotSpot assay relative to control.

Serine/threonine-protein kinase MARK1 (Homo sapiens), sequence (Q9P0L2 whole entry, looked up): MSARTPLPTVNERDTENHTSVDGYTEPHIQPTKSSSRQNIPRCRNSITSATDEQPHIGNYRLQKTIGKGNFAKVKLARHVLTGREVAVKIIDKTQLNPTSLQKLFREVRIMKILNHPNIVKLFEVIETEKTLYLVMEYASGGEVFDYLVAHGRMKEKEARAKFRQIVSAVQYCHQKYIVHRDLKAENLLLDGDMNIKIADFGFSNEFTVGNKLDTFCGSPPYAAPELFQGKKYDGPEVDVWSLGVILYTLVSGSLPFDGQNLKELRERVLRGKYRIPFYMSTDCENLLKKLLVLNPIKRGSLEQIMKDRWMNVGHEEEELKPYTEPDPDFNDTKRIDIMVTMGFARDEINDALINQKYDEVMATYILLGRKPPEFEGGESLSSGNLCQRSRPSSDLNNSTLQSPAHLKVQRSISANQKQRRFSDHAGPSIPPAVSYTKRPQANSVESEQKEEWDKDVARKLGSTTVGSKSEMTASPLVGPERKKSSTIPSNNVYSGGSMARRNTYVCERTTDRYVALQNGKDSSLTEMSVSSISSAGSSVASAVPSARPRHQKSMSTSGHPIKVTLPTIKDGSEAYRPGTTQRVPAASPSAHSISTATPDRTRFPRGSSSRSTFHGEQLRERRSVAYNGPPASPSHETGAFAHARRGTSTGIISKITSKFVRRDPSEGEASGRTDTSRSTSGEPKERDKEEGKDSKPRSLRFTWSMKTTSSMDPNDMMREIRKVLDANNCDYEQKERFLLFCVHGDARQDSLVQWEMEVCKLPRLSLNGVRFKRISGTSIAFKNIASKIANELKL
Calcium/calmodulin-dependent protein kinase type II subunit beta (Homo sapiens), sequence (Q13554 whole entry): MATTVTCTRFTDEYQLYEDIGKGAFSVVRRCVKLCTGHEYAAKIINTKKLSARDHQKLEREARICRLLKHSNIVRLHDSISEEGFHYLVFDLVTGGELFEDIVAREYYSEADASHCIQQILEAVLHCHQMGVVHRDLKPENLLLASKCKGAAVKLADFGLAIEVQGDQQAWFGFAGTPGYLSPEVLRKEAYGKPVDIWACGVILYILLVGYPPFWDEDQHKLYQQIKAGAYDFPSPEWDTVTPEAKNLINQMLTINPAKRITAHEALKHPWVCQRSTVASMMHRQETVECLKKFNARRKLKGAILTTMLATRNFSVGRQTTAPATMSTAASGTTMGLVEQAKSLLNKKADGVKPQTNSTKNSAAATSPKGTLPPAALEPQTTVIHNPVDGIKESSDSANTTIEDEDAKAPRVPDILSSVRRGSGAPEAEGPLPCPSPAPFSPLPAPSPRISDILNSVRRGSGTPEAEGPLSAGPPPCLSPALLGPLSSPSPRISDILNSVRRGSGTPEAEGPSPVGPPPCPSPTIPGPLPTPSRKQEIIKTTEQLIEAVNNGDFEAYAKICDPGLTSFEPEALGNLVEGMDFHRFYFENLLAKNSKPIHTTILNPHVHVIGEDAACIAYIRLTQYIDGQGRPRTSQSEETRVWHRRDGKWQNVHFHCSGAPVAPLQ

As a reminder, the inhibition is the relative decrease from the control value, in per cent. In the case of `C[C@@]1(C(=O)Nc2ccc(F)nc2)CCCN1c1nc(Nc2cc(C3CC3)n[nH]2)c2cccn2n1`, the inhibition in assay [1] was 4.72%; in assay [2] it was -3.41%; in assay [3], 2.48%; in assay [4] it was -4.32%; in assay [5], 4.21%.

In the case of `C[C@]1(O)C[C@@H](c2nc(-c3ccc4ccc(-c5ccccc5)nc4c3)c3c(N)nccn32)C1`, the inhibition in assay [6] was -1.75%; in assay [7] it was -8.62%; in assay [8] it was -2.9%.
